Assay results from PMC6425379, “Pharmacokinetic Study and Tissue Distribution of Lorlatinib in Mouse Serum and Tissue Samples by Liquid Chromatography-Mass Spectrometry” (Journal of Analytical Methods in Chemistry, 2019).
Where two headings read alike, the source gives them in different places.

How the values were obtained:
[1] = Pharmacokinetic study of lorlatinib in mouse serum after oral administration (LC-MS/MS, noncompartmental model); format: in vivo, Kun Ming mice; conditions: mice, 10 mg/kg
Procedure: (§1) All the animal-related experiments were performed in accordance with guidelines of Institutional Experimental Animal Ethical Committee. Kun Ming mice (18–20 g) were obtained from the Beijing HFK Bioscience Co., Ltd. (Beijing, China). All mice were given free access to normal diet and water during the experiment with an exception that mice were fasted for 12 h prior to drug administration.
In order to make all serum samples fall within the range suitable for testing, 10 μL of serum sample was diluted to 100 μL with blank serum. The diluted serum sample was evenly mixed using vortex-mixing. A mixture sample was prepared by adding 200 μL of IS working solution (10 ng/mL) to 20 μL of diluted serum sample, and the mixture was vortex-mixed for 3 min. In order to extract lorlatinib, the supernatant was obtained by centrifugation (11,000 rpm, 15 min, 4°C). Then, 100 μL of supernatant was diluted to 200 μL with purified water, and the mixture was immediately vortex-mixed for 3 min.
(§2) The mice were orally administered with 10 mg/kg lorlatinib. Blood and tissue samples were collected from mice at 0.5, 1, 2, 4, 8, and 24 h after administration. The blood samples were transferred into glass containers and clotted at room temperature for 1 h. Once the clot was formed, blood sample was centrifuged at 4,000 rpm for 10 min, and supernatant was collected. The serum was transferred into another tube and stored at −80°C prior to further analysis. Tissue samples were rinsed by physiological saline, and then excess physiological saline was blotted up. The tissue samples were transferred into PP plastic bags and stored at −80°C until further detection.
(§3) The pharmacokinetic parameters of lorlatinib were estimated with noncompartment model by DAS (Data Analysis System) software (version 3.0, BioGuider Co., Shanghai, China). Moment analysis was used as a noncompartmental approach to obtain various pharmacokinetic parameters. Noncompartmental approach allowed the estimation of pharmacokinetic parameters without assuming any structural properties of the pharmacokinetic behavior of lorlatinib. The area under the curve (AUC) and the first moment curve (AUMC) were calculated by using the linear trapezoidal method, which is required by FDA. The half-life (t1/2) was estimated as MRT multiplied by 0.693. Cmax was defined as maximal concentration, and Tmax was defined as the time at which the Cmax was observed. The tissue distribution was described by quantifying lorlatinib in various tissues at 0.5, 1, 2, 4, 8, and 24 h after administration. All data were summarized to calculate means and standard deviations, and then the concentration-time curve was plotted.

[2] = Tissue distribution of lorlatinib in mice after oral administration (LC-MS/MS); format: in vivo, Kun Ming mice; conditions: 10 mg/kg; for concentration at 0.5 h: Kun Ming, mouse
Procedure: as §1
Tissue samples were weighed, and methanol was added to tissue samples at a ratio of methanol: tissue = 2 mL: 100 mg. Subsequently, tissue samples were homogenized using a high-throughput tissue homogenizer and vortex-mixed for 3 min. Supernatant was obtained by centrifuging at 11,000 rpm for 15 min. Then, 400 μL of 40 ng/mL IS solution was added to 100 μL supernatant. After vortex-mixing, supernatant was isolated by centrifugation.
as §2, §3

SMILES: C[C@H]1Oc2cc(cnc2N)-c2c(nn(C)c2C#N)CN(C)C(=O)c2ccc(F)cc21 [Lorlatinib]
- concentration at 24 h ([1]; Kun Ming, mouse, 24 h after administration): 20.9 ± 1.07 ng/mL
- Cmax ([1]; Kun Ming, mouse, n=8, mean): 2710 ng/mL
- Tmax ([1]; Kun Ming, mouse, n=8, mean): 37.5 min
- half-life ([1]; Kun Ming, mouse, n=8, mean, read-out: t1/2z (converted)): 196 min
- maximal serum concentration ([1]; mean ± SD): 2,705.683 ± 539.779 μg/L
- AUC(0–∞) ([1]; n=8, mean): 16208.177 ug/L ∗ h
- AUMC(0–∞) ([1]; n=8, mean): 78840.738 h ∗ h ∗ ug/L
- time at which the maximum concentration appeared in each tissue ([2]; each tissue): 0.5 h
- concentration at 0.5 h ([2]; brain, read-out: concentration in brain): 1850 ng/g
- concentration at 0.5 h ([2]; heart, read-out: concentration in heart): 3670 ng/g
- concentration at 0.5 h ([2]; kidney, read-out: concentration in kidney): 5490 ng/g
- concentration at 0.5 h ([2]; large intestine, read-out: concentration in large intestine): 2900 ng/g
- concentration at 0.5 h ([2]; liver, read-out: concentration in liver): 31500 ng/g
- concentration at 0.5 h ([2]; lung, read-out: concentration in lung): 3090 ng/g
- concentration at 0.5 h ([2]; small intestine, read-out: concentration in small intestine): 5410 ng/g
- concentration at 0.5 h ([2]; spleen, read-out: concentration in spleen): 2470 ng/g
- concentration at 0.5 h ([2]; stomach, read-out: concentration in stomach): 21600 ng/g
